Experimental data reported in ChEMBL document CHEMBL3507680, “University of Dundee, Gates Library screen for HepG2 cell viability”.

Experiment: Human HepG2 cell viability assay in 384 well format
Type: toxicity, cell-based
Set-up: dose 125 nL, time 70.5 hour; concentration not given beside the values
Conditions: HepG2 cells, read-out: Inhibition

SMILES | cytotoxicity at 70.5 h
c1cnn(CC2CN(Cc3ccc(-n4ccnc4)cc3)CCO2)c1 (stereo not given) | 12.9%
Fc1cccc(Cl)c1CNCc1ccccn1 | -12.6%
CCOCC(=O)NCC1CCN(Cc2ccsc2)CC1 | 1.54%
COCc1nc(C(=O)N2CCN(Cc3ccsc3)CC2)cs1 | -0.448%
NCCc1cc(N2CCOCC2)nc(NC2CC2)n1 | -8.21%
CN(C)CCn1c2c(ccc1=O)CC(NC(=O)NC1CCCC1)CC2 (stereo not given) | -6.88%
COc1cccc2c1N(S(=O)(=O)c1cc(C(=O)O)cs1)CCC2 | -6.55%
Cn1cc(C2CC(=O)NC23CCN(C(=O)NC2CC2)CC3)cn1 (stereo not given) | -6.56%
CCN1C(=O)CCCC12CCCN(C(=O)c1sccc1C)C2 (stereo not given) | -9.33%
COc1ccc(-c2cnc(CN3CCCC3Cn3cccn3)o2)cc1 (stereo not given) | -7.48%
COc1ccc(CN2CCN(c3ncc(Cl)cn3)CC2)cc1 | 13.2%
O=C(NCC1CCS(=O)(=O)C1)c1ccco1 (stereo not given) | -8.58%
O=S(=O)(CCN1CCCCC1Cn1cncn1)c1ccccc1 (stereo not given) | 27.2%
CCc1cc(NCCCC2CCOC2)n2nccc2n1 (stereo not given) | -1.93%
CC(C)n1[nH]c(=O)c2c1NC(=O)CC2C1CCCCC1 (stereo not given) | 4.13%
O=C1CC(c2ccncc2)C2(CCN(Cc3nccs3)CC2)N1 (stereo not given) | -7.32%
CS(=O)(=O)N1CCC(Cc2cnc(Br)cn2)CC1 | -5.81%
Cc1nc(CN2CC3(CCN(c4cnccn4)C3)CC2=O)cs1 (stereo not given) | -10.3%
COCC(C)NC(=O)c1sccc1-n1cnnn1 (stereo not given) | -2.58%
CN(Cc1ccc(-n2cccn2)cc1)c1nc(N)nc2c1CCNCC2 | 12.6%
O=C(NCCN1CCOCC1)c1cc(COc2ccccc2F)[nH]n1 | 0.766%
CC(C)c1nc(CN(C)C(=O)CCS(=O)(=O)c2ccccc2)no1 | -8.68%
CC1CCN(S(=O)(=O)c2cccn(CC(=O)NC(C)(C)C)c2=O)CC1 | -9.49%

SMILES | cytotoxicity at 70.5 h
Cc1cc(C)c(CNc2ncnc3ccsc23)c(=O)[nH]1 | -9.82%
CN(C)CCn1ccnc1C1CCN(C(=O)CCC(F)(F)F)CC1 | -7.92%
CC(C)CC(NC(=O)CN(C)c1cnccn1)c1cccs1 (stereo not given) | -6.01%
CC(C)c1nccn1C1CCCN(C(=O)c2cccc3[nH]ncc23)C1 (stereo not given) | -8.02%
COc1ccc(OC2CCN(C(=O)CCc3nc(Cl)n[nH]3)CC2)cc1 | -4.51%
CCc1nc(C2CCCN(C(=O)NC3CC3)C2)no1 (stereo not given) | -0.741%
Cc1nn(C)c(C)c1CN1CCNCC1 | -4.45%
O=C1CC(NCc2ccccn2)CN1CCc1ccc(F)cc1 (stereo not given) | 20.5%
CC(C)Oc1ccc2c(NC(=O)[C@H](C)O)nn(CC(F)(F)F)c2c1 | -16.3%
Cc1ncc(-c2nc3cc(S(=O)(=O)N4CCCC4)ccc3n2C)cn1 | -0.434%
COc1ccncc1NC(=O)C1(c2ccccc2)CC1 | -8.43%
CCc1nsc(N2CCN(CC(=O)Nc3c(C)n[nH]c3C)CC2)n1 | 2.39%
Cn1cc(CN2Cc3cn(C)nc3C(COCC3CC3)C2)cn1 (stereo not given) | -5.92%
CCN1CC[C@@]2(C(=O)N(C)C)CCN(C(=O)Cc3ccccc3)CC[C@@H]12 | -8.1%
O=C1CC(c2ccc(O)cc2)c2sc(C(=O)O)c(-c3ccccc3)c2N1 (stereo not given) | -16.3%
NC(=O)C1CN(C(=O)Cc2cccnc2)CCN(C2CCOCC2)C1 (stereo not given) | 0.12%
COc1cccc2c1OCC(C(=O)NCCn1nc(C)c(Cl)c1C)C2 (stereo not given) | -5.88%
Cc1ccc2cc(CN(C)Cc3ccncn3)c(=O)[nH]c2c1 | -13.2%
CC(C)CCN1CCC2(CCCN(c3nncs3)C2)C1 (stereo not given) | -5.61%
CCN1CCN(C2CCN(C(C(N)=O)c3ccc(F)cc3)CC2)C1=O (stereo not given) | 5.11%
CCc1nc(CN2CCCN(C(=O)CC(F)(F)F)CC2)cs1 | 1.28%
Cc1cnc(N2CCN(C)c3ncccc3C2)nc1 | 4.51%
Cc1cccnc1NCCNC(=O)c1cnc(-c2ccccn2)nc1O | 46.5%

SMILES | cytotoxicity at 70.5 h
CN1CCN(CCOc2ccc(NC(=O)c3ccoc3)cc2)CC1 | -4.12%
O=C(N1CCC(O)(C(F)(F)F)C1)C1(c2ccc(Cl)cc2)CC1 (stereo not given) | 18.9%
c1ccc(N2CCCC3(CCN(Cc4cccs4)C3)C2)nc1 (stereo not given) | 33.5%
Nc1ncc(CN2CCC(O)(c3ccccc3F)CC2)cn1 | -2.71%
COc1c[nH]c(C(=O)N2CCN(c3ccc(Cl)cc3)CC2)cc1=O | 20.3%
Cc1cc(C)n(CCNc2ncnc3c2NC(=O)CN3)n1 | -15.7%
CC(O)c1cn(CC2CCN(C(=O)c3cscn3)CC2)nn1 (stereo not given) | -3.74%
NC(=O)N1CCCN(CCc2nc(-c3cccc(Cl)c3)no2)CC1 | 4.65%
Cc1nc(C2CCCN2Cc2nc(C3CC3)no2)no1 (stereo not given) | -2.5%
CCc1nc2c(NCC3COc4ccccc4C3)ncnc2o1 (stereo not given) | -1.81%
Cc1cc2c(=O)n(CCSc3ncn[nH]3)cnc2s1 | -7.44%
Cc1nc(C)c(CC(=O)N2C[C@@H]3CC[C@H](C2)N(CC2CCC2)C3)c(=O)[nH]1 | -6.37%
OCc1cccc(OCc2ccon2)c1 | -3.01%
CC(=O)N1CCC(Cc2nccnc2-c2ccnn2C)CC1 | -2.74%
COCCC(=O)N1CCC(c2cncc(Oc3cccnc3)n2)CC1 | -0.961%
Cc1nc(CN(C)CC2CCCN2c2cccnn2)oc1C (stereo not given) | -1.57%
Cn1cc(N2CC3(CCN(CC4CC4)CC3)OCC2=O)cn1 | -12.5%
Cc1nocc1C(=O)N1CCc2c(CN(C)C(C)C)n[nH]c2C1 | -8.09%
Cc1nnc(NC(=O)CN(C)CC2CCCN2c2cccnn2)s1 (stereo not given) | 18.3%
O=C(CNc1cccc(S(=O)(=O)C(F)F)c1)NCc1ccco1 | 11.3%
O=C(Cn1cccn1)N1CCC(c2nnc(-c3ccsc3)o2)CC1 | -4.75%
Cc1cccc(CN2CCN(c3ncnc4[nH]cnc34)CC2CCO)n1 (stereo not given) | 9.72%
Cc1cccc(S(=O)(=O)N2CSCC2C(=O)NCC2CC2)c1 (stereo not given) | -2.32%

SMILES | cytotoxicity at 70.5 h
CN(Cc1ccc(N(C)C)cc1)C(=O)c1cc2c([nH]c1=O)CCCC2=O | -4.35%
Cc1nc(N(C)C)nc(NCCc2c[nH]cn2)c1C | 23.7%
Fc1ccc(-c2nnc(CN3CCCC(Cn4cncn4)C3)o2)cc1 (stereo not given) | -5.49%
CN1CC(C(=O)N2CCC(Oc3ccccc3Cl)CC2)CC1=O (stereo not given) | -1.46%
CN1CCN([C@@H]2CCN(C(N)=O)[C@H]2Cc2ccccc2)CC1 | -0.0899%
O=C(Cn1ccc2c(Cl)cccc21)N1CCCC1 | -1.08%
COc1ccccc1CC(=O)N1CCCC(CNS(C)(=O)=O)C1 (stereo not given) | -9.26%
Cc1ccc([C@@H]2CN(S(=O)(=O)C(C)C)C[C@H]2N(C)C)cc1 | -12.5%
COc1ccc(S(=O)(=O)N2CCC(Cn3ccnc3)CC2)cc1 | -6.35%
COc1cc(CO)ccc1OCc1nc(C2CC2)no1 | -7.52%
CC1CCCCN1c1nc2c(c(=O)[nH]1)CCN(Cc1ccccn1)C2 (stereo not given) | 3.45%
CCC(O)CN1CCN(C(=O)Cc2cc(Cl)ccc2OC)CC1 (stereo not given) | -8.81%
CCN(Cc1ccncc1)Cc1c[nH]nc1-c1ccc(F)cc1 | -6.51%
CCc1cnc(CN(C)C(=O)Nc2cnc3c(c2)c(C)nn3C)s1 | -2.27%
COc1cc(/C=C/c2ncc(C(=O)O)s2)cc(Cl)c1OC | 18.2%
CN(CC(=O)N1CCCC1c1noc(C2CC2)n1)Cc1ccccc1 (stereo not given) | -7.61%
COc1ccc(CN2CC(O)CN(C(=O)OCC(C)C)CC2=O)cc1 (stereo not given) | 14.8%
CS(=O)(=O)NC[C@H]1Cn2c(-c3ccc(F)cc3)cnc2CO1 | -3.71%
CCn1ncc(NC(=O)c2cc(C3CC3)nc3c2c(C)nn3C)c1C | 35.5%
Cc1nc(CNCC2CCCN2c2cccnn2)cs1 (stereo not given) | 2.56%
Cn1ccnc1CN1CCN(CC(O)c2ccco2)CC1 (stereo not given) | -25.9%
CCN(CC(=O)N(C)C)C(=O)c1cc(-c2cccc(Cl)c2)no1 | 3.05%
Cn1c(CN2CCC(O)CC2)nnc1C1CCCN(C(=O)C2CNC2)C1 (stereo not given) | -5.47%

SMILES | cytotoxicity at 70.5 h
CN(C)CCO[C@H]1CN(C(=O)c2ccc3c(c2)OCO3)[C@@H]2COC[C@H]12 | -11.6%
CCc1nc(C2CCCN(C(=O)c3ccc(OC(C)C)nc3)C2)no1 (stereo not given) | 17.6%
COC(=O)C1CCN(C(=O)Cn2ccc(-c3ccccc3)n2)CC1 | -10.6%
CN(C)C(=O)N1C[C@@H]2CC[C@H](C1)N(C(=O)c1cccc(N(C)C)c1)C2 | -4.96%
CO[C@@]1(C)C[C@@H](O)C12CCN(C(=O)CCn1c(C)cccc1=O)CC2 | -4.42%
Cc1cccc(C2CCCN2S(=O)(=O)N(C)C)n1 (stereo not given) | -2.59%
CN(C)c1cc(C(=O)N2CCCC2c2cnn(C)c2)ccn1 (stereo not given) | 4.19%
Cc1ccn(-c2ccc(NCc3ccccc3F)nn2)n1 | 13.7%
Cc1nsc(NC(=O)NC2(CN3CCOCC3)CCCCC2)n1 | 1.42%
Cc1nn(C)c(C)c1CN(C)C(=O)c1cc(C(F)(F)F)n(C)n1 | -5.06%
O=C(CN1CCCC(Cn2cncn2)C1)NCCOc1ccccc1 (stereo not given) | -2.13%
COCCN1CCOCC12CCN(Cc1ccn(C)n1)CC2 | -5.01%
COC(=O)C(C)(C)S(=O)(=O)c1ccc(Br)cc1 | -1.38%
Cn1cc(CNCC(c2ccc(Cl)cc2)n2cccn2)cn1 (stereo not given) | -5.62%
CC1c2ncc(CNC(=O)C3CC3)n2CCN1Cc1cnn(C)c1 (stereo not given) | -12%
Cc1ccccc1OCn1ccc(C(=O)NCCN2CCOCC2)n1 | -12.2%
COc1ccc(CNC(c2cccc(F)c2)c2cnn(C)c2)cc1 (stereo not given) | -3.12%
CCN(CC)S(=O)(=O)N1CCc2nc(C3CCNCC3)ncc2C1 | -4.41%
C1CCCN(CC2CCCN(Cc3noc(C4CC4)n3)C2)CC1 (stereo not given) | 0.15%
O=c1[nH]c(N2CCN(C3CC3)CC2)nc2c1cnn2-c1ccccc1 | -6.97%
Cc1cc2nc(CO[C@H]3CN(C(=O)C4CC4)C[C@H]3F)[nH]c2cc1C | 27.1%
O=C(CCc1cscn1)N1CCCC(c2ccn[nH]2)C1 (stereo not given) | -8.08%
Cn1cnc2c1CCN(Cc1cccc(C(=O)N3CCCCC3)c1)C2 | -7.19%
